Laboratory results reported in patent US20120328605A1, “COMPOSITIONS AND USES” (priority 2010, published 2012).
“Also recorded” adds a separate entry of the source.

Columns and labels:
[1] = system: CD11b+ peripheral blood monocytes; test: Ex vivo uptake assay of Aβ1-42 by peripheral blood monocytes; assay type: cell-based, C57BL/6 mice; details: AS01B mouse full dose (5 ug per mouse) or CRX601 2 μg i.m.; FIG. 14
Description: Preparation of cells: Peripheral blood was drawn from C57BL/6 mice via cardiac puncture with lithium-heparin as anticoagulant, 24-hours after injection of the adjuvants used herein. Red blood cell lysis was performed twice on pooled blood with Ammonium Chloride-based Buffer (Sigma, Steinheim, Germany) and cells were counted with the EasyCount™ System (Immunicon). […]
(§1) FACS analysis: cells were harvested after incubation with fluorescent Aβ peptide with Trypsin/EDTA and cold PBS and washed three times. 500,000 cells were incubated in 96-well plate for 10 min. on ice in the presence of Rat anti-Mouse CD16/CD32 (clone 2.4G2-BD Fc Block™) and further stained for 30 min. with a combination of the following directly conjugated antibodies at their pre-determined optimal concentration: PE-Hamster anti-Mouse CD3 (clone 145-2C11), Rat anti-Mouse CD45R/B220 (clone RA3-6B2), Rat anti-Mouse Ly-6G (clone 1A8), Mouse anti-Mouse NK1.1 (clone PK136), APC-conjugated Rat anti-Mouse CD11b (clone M1/70), PE-Cy7-conjugated Hamster anti-Mouse CD11c (clone HL3), (all from BD PharMingen). […]
Samples were acquired on a flow cytometer (BD FACSCanto II) and data analyzed with the FACSDiva software (BD Biosciences). […]

CD11b+ monocytes = test: In vivo uptake assay of Aβ42 after immunization or passive immunotherapy; parameters: species or system C57BL/6 mice; antibody-mediated Aβ peripheral uptake: dose or concentration left out as unconfirmed; details: FIG. 22
Description: Mice: C57BL/6 female mice were purchased from Charles River. […]
[…] At day 22, 5 μg per mouse of fluorescent HiLyte Fluor™ 488-labeled Amyloid β 1-42 (Anaspec, Fremont, Calif.) was injected in the tail vein. Preparation of cells: Peripheral blood was drawn from immunized C57BL/6 mice via cardiac puncture with lithium-heparin as anticoagulant, 2 hours after i.v. injection of the Aβ1-42 HiLyte Fluor™ 488 (Day 22). Plasma of pooled blood was decanted and saved for measurement of antibody titres by ELISA. Red blood cell lysis was performed twice with Ammonium Chloride-based Buffer (Sigma, Steinheim, Germany) and cells were counted with the EasyCount™ System (Immunicon).
as §1, with “analysis:” for “analysis: cells were harvested after incubation with fluorescent Aβ peptide with Trypsin/EDTA and cold PBS and washed three times.”, “were aliquoted in a 96-well plate, washed once,” for “were”, “incubated” for “incubated in 96-well plate”, “PharMingen). Cells were finally washed twice and fixed for 15 min. with a 2% paraformaldehyde solution in PBS.” for “PharMingen).”

CCCCCCCCCCC[C@H](CC(=O)N[C@H]1[C@H](OC[C@H](NC(=O)C[C@@H](CCCCCCCCCCC)OCCCCCCCCCC)C(=O)O)O[C@H](CO)[C@@H](OP(=O)(O)O)[C@@H]1OC(=O)C[C@@H](CCCCCCCCCCC)OCCCCCCCCCC)OCCCCCCCCCC [CRX601]
ex vivo uptake of Aβ42 by monocytes compared to PBS group [1]: higher amount of Aβ42
antibody-mediated Aβ uptake, effect of CRX601 when combined with AS03 emulsion (CD11b+ monocytes; CRX601 20 ug with AS03): partially quenched
antibody-mediated Aβ peripheral uptake (CD11b+ monocytes; single i.m. injection, 24 hrs, Aβ Fluor i.v., 2 hrs): highest Aβ uptake; also recorded: Dose-response observed
